Laboratory results from US8946266B2, “Substituted triazole and imidazole derivatives as gamma secretase modulators” (Janssen Pharmaceuticals, Inc., priority 2009, dated 2015).
pIC50: −log10 of the molar value. Read-outs that look alike come from different tables or passages of the source.

Legend:
Aβtotal = test: γ-secretase-modulating activity, Method 2: Aβtotal Alphalisa in supernatant of SKNBE2 cells carrying APP 695-wild type (Table 3b); type: cell-based; settings: overnight, read-out: IC50 Aβtot
Procedure: (§1) Screening was carried out using SKNBE2 cells carrying the APP 695-wild type, grown in Dulbecco's Modified Eagle's Medium/Nutrient mixture F-12 (DMEM/NUT-mix F-12) (HAM) provided by Invitrogen (cat no. 10371-029) containing 5% Serum/Fe supplemented with 1% non-essential amino acids, 1-glutamine 2 mM, Hepes 15 mM, penicillin 50 U/ml (units/ml) en streptomycin 50 μg/ml. Cells were grown to near confluency.
(§2) The screening was performed using a modification of the assay as described in Citron et al (1997) Nature Medicine 3: 67. Briefly, cells were plated in a 384-well plate at 10^4 cells/well in Ultraculture (Lonza, BE12-725F) supplemented with 1% glutamine (Invitrogen, 25030-024), 1% non-essential amino acid (NEAA), penicillin 50 U/ml en streptomycin 50 μg/ml in the presence of test compound at different test concentrations. The cell/compound mixture was incubated overnight at 37° C., 5% CO2. The next day the media were assayed by two sandwich immuno-assays, for Aβ42 and Aβtotal.
(§3) Aβtotal and Aβ42 concentrations were quantified in the cell supernatant using the Aphalisa technology (Perkin Elmer). Alphalisa is a sandwich assay using biotinylated antibody attached to streptavidin coated donorbeads and antibody conjugated to acceptor beads. In the presence of antigen, the beads come into close proximity. The excitation of the donor beads provokes the release of singlet oxygen molecules that trigger a cascade of energy transfer in the acceptor beads, resulting in light emission. To quantify the amount of Aβ42 in the cell supernatant, monoclonal antibody specific to the C-terminus of Aβ42 (JRF/cAβ42/26) was coupled to the receptor beads and biotinylated antibody specific to the N-terminus of Aβ (JRF/AβN/25) was used to react with the donor beads. To quantify the amount of Aβ total in the cell supernatant, monoclonal antibody specific to the N-terminus of Aβ (JRF/AβN/25) was coupled to the receptor beads and biotinylated antibody specific to the mid region of Aβ (biotinylated 4G8) was used to react with the donor beads.
(§4) The sigmoidal dose response curves were analyzed using non-linear regression analysis with percentage of the control plotted against the log concentration of the compound. A 4-parameter equation was used to determine the IC50.
(§5) The IC50 values are shown in Table 3b (Aβtot means Aβtotal).

Aβ42 = test: γ-secretase-modulating activity, Method 2: Aβ42 Alphalisa in supernatant of SKNBE2 cells carrying APP 695-wild type (Table 3b); type: cell-based; settings: overnight
Procedure: as §1, §2, §3
To obtain the values reported in Table 3b, the data were calculated as percentage of the maximum amount of amyloid Beta 42 measured in the absence of the test compound.
as §4, §5

| SMILES | pIC50 (Aβtotal) | pIC50 (Aβ42) | pIC50 (Aβtotal; Homo sapiens) | pIC50 (Aβ42; Homo sapiens) |
| --- | --- | --- | --- | --- |
| COc1ccccc1Nc1nc(-c2ccc(-n3cnc(C)c3)c(OC)c2)nn1C [Compound 187] | < 5.00 | 6.75 |  |  |
| COc1cc(-c2nc(-c3cc(C(F)(F)F)ccc3C)n(C)n2)ccc1-n1cnc(C)c1 [Compound 72] | < 5.00 | 6.54 |  |  |
| COc1ccc(F)c(Nc2nc(-c3ccc(-n4cnc(C)c4)c(OC)c3)nn2C)c1 [Compound 195] | < 5.00 | 7.02 |  |  |
| COc1cc(-c2nc(N3CCOCC3)n(-c3ccc(F)cc3)n2)ccc1-n1cnc(C)c1 [Compound 71] |  |  | < 5.00 | 5.94 |
| COc1cc(-c2nc(Nc3cc(C(F)(F)F)ccc3C)n(C)n2)ccc1-n1cnc(C)c1 [Compound 131] | 5.20 | 8.10 |  |  |
| COc1cc(-c2nc(N3CCCC(c4ccccc4)C3)n(C)n2)ccc1-n1cnc(C)c1 (racemic) [Compound 78] | 5.07 | 7.30 |  |  |
| COc1cc(-c2nc(Nc3cccc(F)c3OC)n(C)n2)ccc1-n1cnc(C)c1 [Compound 219] | < 5.00 | 7.04 |  |  |
| COc1cc(-c2nc(C3(c4cc(C(F)(F)F)ccc4F)CC3)n(C)n2)ccc1-n1cnc(C)c1 [Compound 90] | 5.05 | 6.25 |  |  |
| COc1cc(-c2nc(Nc3ccc(F)cc3C#N)n(C)n2)ccc1-n1cnc(C)c1 [Compound 228] | < 5.00 | 5.35 |  |  |
| COc1cc(-c2nc3n(n2)CCC[C@@H]3c2ccccc2Cl)ccc1-n1cnc(C)c1 [Compound 254] | < 5.00 | 6.63 |  |  |
| COc1cc(-c2nc(Nc3c(F)cccc3F)n(C)n2)ccc1-n1cnc(C)c1 [Compound 116] | < 5.00 | 6.70 |  |  |
| COc1cc(-c2nc3n(n2)CCOC3c2cccc(F)c2C)ccc1-n1cnc(C)c1 (stereo not drawn) [Compound 345] | < 5.00 | 6.97 |  |  |
| COc1cc(-c2nc3n(n2)CCOC3c2ccc(F)cc2F)ccc1-n1cnc(C)c1 (stereo not drawn) [Compound 282] | < 5.00 | 6.42 |  |  |
| COc1cc(-c2nc(Cc3ccc(F)cc3C(F)(F)F)n(C)n2)ccc1-n1cnc(C)c1 [Compound 46] | 5.07 | 6.86 |  |  |
| COc1cc(-c2nc3n(n2)CCCC3c2cccc(F)c2)ccc1-n1cnc(C)c1 (stereo not drawn) [Compound 252] | < 5.00 | 6.62 |  |  |
| COc1cc(-c2nc(-c3ccccc3Cl)nn2C)ccc1-n1cnc(C)c1 [Compound 23] | < 5.00 | 5.30 |  |  |
| COc1nc(-c2nc(Nc3cc(C(F)(F)F)ccc3Cl)n(C)n2)ccc1-n1cnc(C)c1 [Compound 160] | < 5.00 | 8.22 |  |  |
| COc1cc(-c2nc(Nc3cccc(Cl)c3Cl)n(C)n2)ccc1-n1cnc(C)c1 [Compound 119] | < 5.00 | 7.27 |  |  |
| COc1cc(-c2nc3n(n2)CCCC3c2cccc(OC(F)(F)F)c2)ccc1-n1cnc(C)c1 (stereo not drawn) [Compound 267] | < 5.00 | 7.31 |  |  |
| COc1cc(-c2nc3n(n2)CCCOC3c2ccc(F)cc2)ccc1-n1cnc(C)c1 (stereo not drawn) [Compound 284] | < 5.00 | 6.64 |  |  |
| COc1cc(-c2nc(Nc3cccc(C(F)(F)F)c3C)n(C)n2)ccc1-n1cnc(C)c1 [Compound 164] | < 5.00 | 7.52 |  |  |
| COc1cc(-c2nc(-c3cc(C(F)(F)F)ccc3C)n(C(C)C)n2)ccc1-n1cnc(C)c1 [Compound 73] | 5.02 | 6.70 |  |  |
| CCC(C)n1nc(-c2ccc(-n3cnc(C)c3)c(OC)c2)nc1Nc1cc(C(F)(F)F)ccc1F (racemic) [Compound 179] | 5.30 | 7.72 |  |  |
| Cc1cn(-c2ccc(-c3nc(Nc4ccc(F)cc4C(F)(F)F)n(C)n3)nc2)cn1 [Compound 170] | < 5.00 | 5.49 |  |  |

| SMILES | pIC50 (Aβtotal) | pIC50 (Aβ42) | pIC50 (Aβtotal; Homo sapiens) | pIC50 (Aβ42; Homo sapiens) |
| --- | --- | --- | --- | --- |
| COc1cc(-c2nc3n(n2)CCCC3(CO)c2ccc(F)cc2C)ccc1-n1cnc(C)c1 (stereo not drawn) [Compound 334] |  |  | < 5.00 | 6.58 |
| COc1cc(-c2nc(Nc3ccc(Cl)cc3C(F)(F)F)n(C)n2)ccc1-n1cnc(C)c1 [Compound 156] | < 5.00 | 7.48 |  |  |
| COc1cc(Nc2nc(-c3ccc(-n4cnc(C)c4)c(OC)c3)nn2C)ccc1F [Compound 193] | < 5.00 | 7.20 |  |  |
| Cc1cn(-c2ccc(-c3nc(Nc4ccccc4C)n(C)n3)cc2OC(F)(F)F)cn1 [Compound 98] | < 5.00 | 6.54 |  |  |
| COc1nc(-c2nc3n(n2)CCC[C@@H]3c2ccccc2C(F)(F)F)ccc1-n1cnc(C)c1 [Compound 262] | < 5.00 | 6.49 |  |  |
| COc1cc(-c2nc(Nc3cc(C(F)(F)F)cc(Cl)c3F)n(C)n2)ccc1-n1cnc(C)c1 [Compound 210] | < 5.00 | 7.46 |  |  |
| COc1cc(-c2nc(Nc3ccccc3C(C)=O)n(C)n2)ccc1-n1cnc(C)c1 [Compound 324] | < 5.00 | 5.88 |  |  |
| COc1cc(-c2nc(Nc3cc(C#N)ccc3F)n(C)n2)ccc1-n1cnc(C)c1 [Compound 226] | < 5.00 | 6.38 |  |  |
| COc1cc(-c2nc(Nc3cc(Cl)cc(Cl)c3)n(C)n2)ccc1-n1cnc(C)c1 [Compound 115] | < 5.00 | 6.99 |  |  |
| COc1cc(-c2nc(C(=O)c3cccc(C(F)(F)F)c3)n(C(C)C)n2)ccc1-n1cnc(C)c1 [Compound 91] |  |  | < 5.00 | 5.63 |
| COc1cc(-c2nc(Nc3ccc(C(F)(F)F)cc3)n(C)n2)ccc1-n1cnc(C)c1 [Compound 151] | 5.39 | 7.57 |  |  |
| COc1cc(-c2nc(Nc3cccc(C(F)(F)F)c3)n(C)n2)ccc1-n1cnc(C)n1 [Compound 273] | 5.00 | 6.81 |  |  |
| COc1cc(-c2nc(Nc3cc(Cl)ccc3C(F)(F)F)n(C)n2)ccc1-n1cnc(C)c1 [Compound 143] | < 5.00 | 7.52 |  |  |
| COc1nc(-c2nc3n(n2)CCCC3c2ccc(F)cc2C)ccc1-n1cnc(C)c1 (stereo not drawn) [Compound 313] | < 5.00 | 7.17 |  |  |
| COc1cc(-c2nc(Nc3ccc(F)cc3)n(C)n2)ccc1-n1cnc(C)c1 [Compound 106] | < 5.00 | 6.88 |  |  |
| COc1cc(-c2nc(Nc3ccccc3Br)n(C)n2)ccc1-n1cnc(C)c1 [Compound 102] | < 5.00 | 7.25 |  |  |
| COc1cc(-c2nc(Nc3ccc(C#N)cc3)n(C)n2)ccc1-n1cnc(C)c1 [Compound 225] | < 5.00 | 5.84 |  |  |
| COc1cc(-c2nc(N3CC(C)OC(C)C3)n(C)n2)ccc1-n1cnc(C)c1 (stereo not drawn) [Compound 35] | < 5.00 | 6.11 |  |  |
| COc1cc(-c2nc3n(n2)CCOC3c2cc(OC(F)(F)F)ccc2F)ccc1-n1cnc(C)c1 (stereo not drawn) [Compound 165] | < 5.00 | 6.86 |  |  |
| COc1cc(-c2nc(Nc3ccc4c(c3)OC(F)(F)O4)n(C)n2)ccc1-n1cnc(C)c1 [Compound 231] | 5.23 | 7.25 |  |  |
| COc1nc(-c2nc3n(n2)CCOC3c2cccc(F)c2C)ccc1-n1cnc(C)c1 (stereo not drawn) [Compound 347] | < 5.00 | 6.90 |  |  |
| COc1cc(-c2nc(N3CCc4ccccc4C3)n(C(C)C)n2)ccc1-n1cnc(C)c1 [Compound 82] | 5.11 | 6.22 |  |  |
| Cc1cn(-c2ccc(-c3nc(Nc4ccccc4C(F)(F)F)n(C)n3)cc2C#N)cn1 [Compound 321] | < 4.82 | 6.74 |  |  |
| COc1cc(-c2nc(Nc3cc(F)ccc3Cl)n(C)n2)ccc1-n1cnc(C)c1 [Compound 113] | < 5.00 | 7.22 |  |  |
